Results reported in paper PMC9329436, “Optimization of the 4-anilinoquin(az)oline scaffold as epidermal growth factor receptor (EGFR) inhibitors for chordoma utilizing a toxicology profiling assay platform” (Scientific Reports, 2022).
Like-named read-outs stand apart in the source and are kept apart here.

Key:
Type in all cases: biochemical
[1] = biological target: 320 wild-type protein kinases (Homo sapiens, UniProt Q9Y6E0); settings: singlicate
Text: (§1) Table S4. Profiling of two compounds at two concentrations against 320 wild-type protein kinases; singlicate measurement; Residual activities (% of control).

[2] = biological target: 320 wild-type protein kinases (Homo sapiens, UniProt P28482); settings: singlicate
320 wild-type protein kinases (Homo sapiens, UniProt P28482), sequence (P28482 whole entry): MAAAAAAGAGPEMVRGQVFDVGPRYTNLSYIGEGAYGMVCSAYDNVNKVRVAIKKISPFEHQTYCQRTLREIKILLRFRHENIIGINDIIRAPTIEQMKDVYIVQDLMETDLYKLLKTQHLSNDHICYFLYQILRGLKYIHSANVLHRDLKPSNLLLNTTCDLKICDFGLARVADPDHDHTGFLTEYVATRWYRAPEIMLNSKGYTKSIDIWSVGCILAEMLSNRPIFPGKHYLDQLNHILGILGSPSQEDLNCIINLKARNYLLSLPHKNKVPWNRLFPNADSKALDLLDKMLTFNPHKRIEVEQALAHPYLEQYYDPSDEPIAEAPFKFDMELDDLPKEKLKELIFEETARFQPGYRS
Text: as §1

[3] = biological target: 320 wild-type protein kinases (Homo sapiens, UniProt Q9HCP0); settings: singlicate
320 wild-type protein kinases (Homo sapiens, UniProt Q9HCP0), sequence (Q9HCP0 whole entry): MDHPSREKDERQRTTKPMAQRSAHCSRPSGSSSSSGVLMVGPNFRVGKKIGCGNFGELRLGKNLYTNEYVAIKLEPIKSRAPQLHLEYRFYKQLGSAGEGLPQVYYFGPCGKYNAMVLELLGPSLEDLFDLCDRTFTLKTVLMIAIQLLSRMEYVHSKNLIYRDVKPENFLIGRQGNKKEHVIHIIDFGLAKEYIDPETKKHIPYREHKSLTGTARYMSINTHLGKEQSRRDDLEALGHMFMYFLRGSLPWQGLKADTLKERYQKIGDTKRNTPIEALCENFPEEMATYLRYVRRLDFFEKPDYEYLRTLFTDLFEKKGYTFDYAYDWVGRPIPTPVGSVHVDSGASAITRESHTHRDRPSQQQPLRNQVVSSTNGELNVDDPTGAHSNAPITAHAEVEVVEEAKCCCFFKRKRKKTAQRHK
Text: as §1

[4] = biological target: T1, 320 wild-type protein kinases (Homo sapiens, UniProt Q13188); settings: singlicate
T1 sequence (Q13188 1-491): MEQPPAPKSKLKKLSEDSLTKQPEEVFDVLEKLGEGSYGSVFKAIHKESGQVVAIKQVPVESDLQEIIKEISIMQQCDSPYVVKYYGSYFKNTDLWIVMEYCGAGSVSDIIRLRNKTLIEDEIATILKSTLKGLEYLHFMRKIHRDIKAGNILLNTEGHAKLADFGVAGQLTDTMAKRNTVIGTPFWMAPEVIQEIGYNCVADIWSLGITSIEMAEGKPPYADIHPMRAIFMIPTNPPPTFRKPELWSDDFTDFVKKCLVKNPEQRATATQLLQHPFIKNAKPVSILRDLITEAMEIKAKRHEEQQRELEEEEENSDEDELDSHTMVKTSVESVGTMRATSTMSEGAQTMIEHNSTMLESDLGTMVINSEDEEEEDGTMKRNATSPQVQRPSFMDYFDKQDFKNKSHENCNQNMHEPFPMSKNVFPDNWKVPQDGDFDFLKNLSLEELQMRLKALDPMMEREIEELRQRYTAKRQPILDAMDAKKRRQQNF
Text: as §1

[5] = biological target: T2, 320 wild-type protein kinases (Homo sapiens, UniProt O15530); settings: singlicate
T2 sequence (O15530 1-556): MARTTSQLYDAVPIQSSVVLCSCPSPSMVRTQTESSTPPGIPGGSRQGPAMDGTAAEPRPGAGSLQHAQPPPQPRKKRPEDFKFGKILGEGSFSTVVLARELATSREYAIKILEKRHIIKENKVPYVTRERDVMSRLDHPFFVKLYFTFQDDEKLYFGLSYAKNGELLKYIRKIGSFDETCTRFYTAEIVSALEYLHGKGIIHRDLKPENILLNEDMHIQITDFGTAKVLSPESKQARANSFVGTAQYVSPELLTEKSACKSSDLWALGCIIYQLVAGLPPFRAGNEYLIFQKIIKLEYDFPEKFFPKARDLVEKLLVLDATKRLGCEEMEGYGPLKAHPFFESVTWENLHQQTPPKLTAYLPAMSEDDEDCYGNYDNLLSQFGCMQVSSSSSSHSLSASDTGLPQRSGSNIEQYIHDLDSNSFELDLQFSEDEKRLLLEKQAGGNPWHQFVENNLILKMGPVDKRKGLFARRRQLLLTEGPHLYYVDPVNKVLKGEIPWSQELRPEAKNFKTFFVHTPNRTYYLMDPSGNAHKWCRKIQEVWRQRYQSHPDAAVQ
Text: as §1

[6] = biological target: 320 wild-type protein kinases (Homo sapiens, UniProt P36894); settings: BMPR1A, singlicate
Text: as §1

[7] = biological target: 320 wild-type protein kinases (Homo sapiens, UniProt Q13177); settings: singlicate
320 wild-type protein kinases (Homo sapiens, UniProt Q13177), sequence (Q13177 whole entry): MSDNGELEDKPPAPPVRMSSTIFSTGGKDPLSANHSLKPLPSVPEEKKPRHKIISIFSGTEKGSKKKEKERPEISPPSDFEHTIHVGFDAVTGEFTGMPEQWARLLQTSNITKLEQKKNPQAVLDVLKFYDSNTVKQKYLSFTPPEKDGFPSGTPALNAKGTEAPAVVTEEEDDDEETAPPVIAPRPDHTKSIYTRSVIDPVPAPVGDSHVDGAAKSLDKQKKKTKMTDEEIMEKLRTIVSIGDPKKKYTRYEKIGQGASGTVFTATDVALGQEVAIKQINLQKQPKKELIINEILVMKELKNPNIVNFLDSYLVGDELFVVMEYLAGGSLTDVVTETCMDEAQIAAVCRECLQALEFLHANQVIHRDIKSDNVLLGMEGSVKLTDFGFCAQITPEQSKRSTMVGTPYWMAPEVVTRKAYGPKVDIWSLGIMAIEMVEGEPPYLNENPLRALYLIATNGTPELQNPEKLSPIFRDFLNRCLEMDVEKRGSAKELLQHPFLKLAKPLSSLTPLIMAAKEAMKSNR
Text: as §1

[8] = biological target: 320 wild-type protein kinases (Homo sapiens, UniProt P08922); settings: kinase ROS, singlicate
320 wild-type protein kinases (Homo sapiens, UniProt P08922), sequence (P08922 28-2347): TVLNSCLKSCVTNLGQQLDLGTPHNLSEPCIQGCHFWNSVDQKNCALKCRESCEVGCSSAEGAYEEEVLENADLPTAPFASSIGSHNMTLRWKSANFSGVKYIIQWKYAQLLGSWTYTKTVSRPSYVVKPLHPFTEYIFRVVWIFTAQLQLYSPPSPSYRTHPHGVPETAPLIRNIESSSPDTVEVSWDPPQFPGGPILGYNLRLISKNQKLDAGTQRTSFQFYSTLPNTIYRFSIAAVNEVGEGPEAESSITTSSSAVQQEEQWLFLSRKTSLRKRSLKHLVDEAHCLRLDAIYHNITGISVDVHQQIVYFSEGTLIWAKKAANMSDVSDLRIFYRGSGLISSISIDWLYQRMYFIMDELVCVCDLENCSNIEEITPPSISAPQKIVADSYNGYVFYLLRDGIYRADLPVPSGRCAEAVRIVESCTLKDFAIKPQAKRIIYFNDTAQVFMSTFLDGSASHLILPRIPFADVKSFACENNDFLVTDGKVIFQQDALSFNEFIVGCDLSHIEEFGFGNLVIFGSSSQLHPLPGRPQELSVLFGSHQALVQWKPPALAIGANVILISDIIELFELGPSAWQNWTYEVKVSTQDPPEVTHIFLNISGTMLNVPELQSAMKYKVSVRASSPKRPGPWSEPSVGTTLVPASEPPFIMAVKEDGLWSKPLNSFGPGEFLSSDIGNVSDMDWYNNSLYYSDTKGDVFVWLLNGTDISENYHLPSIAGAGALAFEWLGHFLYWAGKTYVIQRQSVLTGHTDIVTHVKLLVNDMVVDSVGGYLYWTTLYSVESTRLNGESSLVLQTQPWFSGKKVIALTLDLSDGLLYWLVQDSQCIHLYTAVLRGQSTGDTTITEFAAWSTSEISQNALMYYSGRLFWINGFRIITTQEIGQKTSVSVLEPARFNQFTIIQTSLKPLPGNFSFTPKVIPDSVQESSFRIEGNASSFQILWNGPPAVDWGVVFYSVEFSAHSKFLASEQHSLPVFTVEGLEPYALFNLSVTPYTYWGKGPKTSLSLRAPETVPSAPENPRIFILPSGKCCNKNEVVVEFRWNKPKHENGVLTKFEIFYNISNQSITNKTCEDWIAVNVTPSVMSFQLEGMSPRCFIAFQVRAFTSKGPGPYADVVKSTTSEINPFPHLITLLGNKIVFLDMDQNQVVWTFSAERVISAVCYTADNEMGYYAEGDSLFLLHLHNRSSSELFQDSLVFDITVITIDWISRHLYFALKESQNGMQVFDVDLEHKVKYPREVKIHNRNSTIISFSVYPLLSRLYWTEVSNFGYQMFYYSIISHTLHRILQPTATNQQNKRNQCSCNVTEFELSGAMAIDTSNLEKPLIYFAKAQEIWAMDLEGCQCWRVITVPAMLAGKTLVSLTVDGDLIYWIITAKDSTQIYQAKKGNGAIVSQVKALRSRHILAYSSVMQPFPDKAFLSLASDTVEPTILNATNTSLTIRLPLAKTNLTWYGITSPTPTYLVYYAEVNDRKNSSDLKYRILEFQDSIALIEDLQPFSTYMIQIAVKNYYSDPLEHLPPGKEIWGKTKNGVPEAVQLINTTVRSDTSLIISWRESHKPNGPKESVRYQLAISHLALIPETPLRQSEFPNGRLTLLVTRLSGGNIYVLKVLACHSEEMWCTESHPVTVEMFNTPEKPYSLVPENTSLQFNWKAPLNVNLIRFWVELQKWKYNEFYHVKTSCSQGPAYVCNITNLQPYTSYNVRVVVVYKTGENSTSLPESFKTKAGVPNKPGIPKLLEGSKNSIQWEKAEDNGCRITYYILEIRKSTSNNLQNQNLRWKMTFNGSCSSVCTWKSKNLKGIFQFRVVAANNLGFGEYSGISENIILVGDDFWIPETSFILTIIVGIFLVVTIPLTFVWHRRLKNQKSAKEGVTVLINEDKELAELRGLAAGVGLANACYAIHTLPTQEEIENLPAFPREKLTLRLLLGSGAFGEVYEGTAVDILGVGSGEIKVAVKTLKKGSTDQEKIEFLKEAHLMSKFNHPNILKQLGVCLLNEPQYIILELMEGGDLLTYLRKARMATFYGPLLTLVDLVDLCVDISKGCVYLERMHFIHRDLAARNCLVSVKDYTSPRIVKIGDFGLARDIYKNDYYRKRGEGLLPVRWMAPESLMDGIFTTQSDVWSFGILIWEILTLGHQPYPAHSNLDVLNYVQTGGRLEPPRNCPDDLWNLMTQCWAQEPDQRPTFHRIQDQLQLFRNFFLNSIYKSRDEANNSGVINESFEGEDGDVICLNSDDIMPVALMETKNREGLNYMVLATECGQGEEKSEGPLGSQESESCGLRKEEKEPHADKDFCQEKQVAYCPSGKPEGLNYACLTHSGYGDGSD
Text: as §1

[9] = biological target: 320 wild-type protein kinases (Homo sapiens, UniProt Q13555); settings: CAMK2G, singlicate
Text: as §1

[10] = biological target: 320 wild-type protein kinases (Homo sapiens, UniProt Q5S007); settings: singlicate
Text: as §1

[11] = biological target: 320 wild-type protein kinases (Homo sapiens, UniProt P07333); settings: CSF1-R, singlicate
320 wild-type protein kinases (Homo sapiens, UniProt P07333), sequence (P07333 20-972): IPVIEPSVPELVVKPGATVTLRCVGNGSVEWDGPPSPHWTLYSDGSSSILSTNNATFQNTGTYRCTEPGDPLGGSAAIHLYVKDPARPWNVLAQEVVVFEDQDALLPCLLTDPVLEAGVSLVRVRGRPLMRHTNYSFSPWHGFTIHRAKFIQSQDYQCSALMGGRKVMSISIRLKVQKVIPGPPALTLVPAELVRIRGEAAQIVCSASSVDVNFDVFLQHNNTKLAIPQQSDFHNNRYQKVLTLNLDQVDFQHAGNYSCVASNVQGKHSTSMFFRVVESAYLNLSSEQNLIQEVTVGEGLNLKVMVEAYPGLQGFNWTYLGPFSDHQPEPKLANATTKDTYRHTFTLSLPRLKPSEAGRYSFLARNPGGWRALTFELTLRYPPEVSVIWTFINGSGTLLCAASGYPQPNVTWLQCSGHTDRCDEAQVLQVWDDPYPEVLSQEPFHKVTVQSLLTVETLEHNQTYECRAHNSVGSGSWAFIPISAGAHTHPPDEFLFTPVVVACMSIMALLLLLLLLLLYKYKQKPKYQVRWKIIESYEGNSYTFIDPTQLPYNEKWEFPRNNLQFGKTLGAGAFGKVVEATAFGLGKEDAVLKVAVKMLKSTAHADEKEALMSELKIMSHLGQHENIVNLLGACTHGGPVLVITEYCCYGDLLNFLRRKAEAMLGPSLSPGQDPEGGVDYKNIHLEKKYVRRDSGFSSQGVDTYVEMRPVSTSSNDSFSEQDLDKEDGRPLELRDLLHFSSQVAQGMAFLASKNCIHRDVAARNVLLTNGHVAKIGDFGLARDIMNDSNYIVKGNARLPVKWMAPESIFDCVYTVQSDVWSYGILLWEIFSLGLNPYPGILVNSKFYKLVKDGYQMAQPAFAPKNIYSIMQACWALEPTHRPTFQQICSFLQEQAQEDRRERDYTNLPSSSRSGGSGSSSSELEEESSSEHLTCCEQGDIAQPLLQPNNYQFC
Text: as §1

[12] = biological target: 320 wild-type protein kinases (Homo sapiens, UniProt Q9Y5S2); settings: CDC42BPB, singlicate
Text: as §1

[13] = biological target: 320 wild-type protein kinases (Homo sapiens, UniProt P78527); settings: DNA-PK, singlicate
Text: as §1

[14] = biological target: 320 wild-type protein kinases (Homo sapiens, UniProt P37023); settings: singlicate
Text: as §1

[15] = biological target: 320 wild-type protein kinases (Homo sapiens, UniProt P10721); settings: KIT, singlicate
Text: as §1

[16] = biological target: 320 wild-type protein kinases (Homo sapiens, UniProt P22455); settings: singlicate
Text: as §1

320 wild-type protein kinases (Homo sapiens, UniProt Q9Y6E0), sequence (Q9Y6E0 whole entry): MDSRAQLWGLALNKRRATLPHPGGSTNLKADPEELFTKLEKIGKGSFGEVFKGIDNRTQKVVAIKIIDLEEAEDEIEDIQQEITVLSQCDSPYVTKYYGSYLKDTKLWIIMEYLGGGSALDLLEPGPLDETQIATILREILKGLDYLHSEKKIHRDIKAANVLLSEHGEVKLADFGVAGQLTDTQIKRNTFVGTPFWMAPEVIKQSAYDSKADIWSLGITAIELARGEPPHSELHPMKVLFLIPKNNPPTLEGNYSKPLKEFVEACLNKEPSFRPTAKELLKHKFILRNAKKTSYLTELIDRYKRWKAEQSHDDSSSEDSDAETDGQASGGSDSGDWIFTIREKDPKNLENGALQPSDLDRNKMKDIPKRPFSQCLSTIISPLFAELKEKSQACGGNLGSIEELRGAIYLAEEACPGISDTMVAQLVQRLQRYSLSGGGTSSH

SMILES | Residual activity ([1]; MST3, 1.0E-06 M) | Residual activity ([1]; MST3, 1.0E-07 M) | Residual activity ([2]; ERK2, 1.0E-06 M) | Residual activity ([2]; ERK2, 1.0E-07 M) | Residual activity ([3]; CK1-gamma1, 1.0E-06 M) | Residual activity ([3]; CK1-gamma1, 1.0E-07 M) | Residual activity ([4]; MST2, 1.0E-06 M) | Residual activity ([4]; MST2, 1.0E-07 M) | Residual activity ([5]; PDK1, 1.0E-06 M) | Residual activity ([5]; PDK1, 1.0E-07 M) | Residual activity ([6]; 1.0E-06 M) | Residual activity ([6]; 1.0E-07 M) | Residual activity ([7]; PAK2, 1.0E-06 M) | Residual activity ([7]; PAK2, 1.0E-07 M) | Residual activity, ROS ([8]; assay conc. 1.0E-06 M) | Residual activity, ROS ([8]; assay conc. 1.0E-07 M) | Residual activity ([9]; 1.0E-06 M) | Residual activity ([9]; 1.0E-07 M) | Residual activity ([10]; LRRK2, 1.0E-06 M) | Residual activity ([10]; LRRK2, 1.0E-07 M) | also measured
C#Cc1cc(Nc2ncnc3cc(I)ccc23)ccc1Cl [Compound 41] | 104 % of control | 116 % of control | 86 % of control | 90 % of control | 123 % of control | 125 % of control | 102 % of control | 113 % of control | 77 % of control | 96 % of control | 96 % of control | 109 % of control | 102 % of control | 108 % of control | 88 % of control | 95 % of control | 93 % of control | 118 % of control | 87 % of control | 88 % of control | Residual activity ([11]; 1.0E-06 M): 123 % of control; Residual activity ([11]; 1.0E-07 M): 130 % of control; Residual activity ([12]; 1.0E-06 M): 98 % of control; Residual activity ([12]; 1.0E-07 M): 101 % of control; Residual activity ([13]; 1.0E-06 M): 100 % of control; Residual activity ([13]; 1.0E-07 M): 96 % of control; Residual activity ([14]; ACV-RL1, 1.0E-06 M): 105 % of control; Residual activity ([14]; ACV-RL1, 1.0E-07 M): 102 % of control; Residual activity ([15]; 1.0E-06 M): 121 % of control; Residual activity ([15]; 1.0E-07 M): 128 % of control; Residual activity ([16]; FGF-R4, 1.0E-06 M): 88 % of control; Residual activity ([16]; FGF-R4, 1.0E-07 M): 96 % of control
C#Cc1cc(Nc2ncnc3cc(OC)c(OC)cc23)ccc1Cl [Compound 45] | 94 % of control | 93 % of control | 87 % of control | 94 % of control | 100 % of control | 112 % of control | 102 % of control | 103 % of control | 79 % of control | 93 % of control | 110 % of control | 102 % of control | 104 % of control | 101 % of control | 89 % of control | 96 % of control | 91 % of control | 116 % of control | 81 % of control | 99 % of control | Residual activity ([11]; 1.0E-06 M): 108 % of control; Residual activity ([11]; 1.0E-07 M): 127 % of control; Residual activity ([12]; 1.0E-06 M): 95 % of control; Residual activity ([12]; 1.0E-07 M): 98 % of control; Residual activity ([13]; 1.0E-06 M): 85 % of control; Residual activity ([13]; 1.0E-07 M): 108 % of control; Residual activity ([14]; ACV-RL1, 1.0E-06 M): 106 % of control; Residual activity ([14]; ACV-RL1, 1.0E-07 M): 110 % of control; Residual activity ([15]; 1.0E-06 M): 105 % of control; Residual activity ([15]; 1.0E-07 M): 124 % of control; Residual activity ([16]; FGF-R4, 1.0E-06 M): 96 % of control; Residual activity ([16]; FGF-R4, 1.0E-07 M): 100 % of control
